“And” between values parts separate entries of the source, which are not always exact repeats. Equal values may be shown once.
Assays:
[1] = system: Victoria mixed culture, containing strain VS; assay: Batch dechlorination and growth kinetics, Victoria mixed culture; type: cell-based, Dehalococcoides species strain VS; conditions: for Maximum Growth Rate: VS Mixed (Victoria) culture, 95% confidence interval, least-squares model fit
Text: (§1) Stock cultures. The Victoria mixed culture, containing strain VS, was maintained in a closed continuously stirred tank reactor (CSTR) as previously described. A VC enrichment of this culture, maintained over 5 years, was also used in these investigations. Liquid cultures of the three other cultures evaluated (Pinellas, KB-1/VC, and Dehalococcoides ethenogenes strain 195) were kept in anaerobic bottles, stored in an anaerobic chamber (10% H2, 10% CO2, 80% N2). The bottles were amended with TCE (1-3 μL neat liquid), VC (250 μL gas), and PCE (1-3 μL neat liquid) being added to each, respectively, approximately every two weeks.
(§2) Batch studies. For the experimental portion of this research, two studies were undertaken, one a comparative VC growth study, and the other a comparative growth and substrate utilization study with different chlorinated ethenes. These studies compared the dechlorination abilities of Dehalococcoides ethenogenes strain 195 and the Dehalococcoides-like microorganisms in the three mixed cultures (Victoria, KB-1/VC, and Pinellas).
(§3) For the first study, a VC enriched inoculum was first developed for each of the three mixed cultures. Here, bottles (120 mL) were filled with 60 mL of anaerobic media in an anaerobic chamber as previously described, and inoculated with 200 μL of each stock culture. Gaseous VC (99.5%) was added with a gas tight syringe (200 μL). The cultures were then moved to a shaker (60-80 rpm) in an anaerobic chamber (20±2° C.). Immediately after 5 μmol of ethene was formed in a bottle, 200 μL of the culture was transferred to fresh media (60 mL), in triplicate, and VC was again added (200 μL). The inoculum for the growth study was that formed after exactly 4 μmol of ethene was produced following this second transfer. To compare growth rates on VC, a range in concentration of each inocula (0.1, 0.3, 1, 3, 9 mL) was transferred to fresh media (as above) to result in a liquid volume of 60 mL, and gaseous VC (200 μL) was added to each. […] Hydrogen served as the electron donor and was non-limiting (>3%) in all studies. Headspace samples were periodically removed by syringe (250 μL) for chlorinated ethene analyses.
(§4) The purpose of the second study was to compare dechlorination rates of PCE, TCE and DCE between the three different cultures that grew on VC (Victoria, KB-1/VC and Pinellas). The development of inocula here was performed with VC, just as in the first study. For the growth and substrate utilization experiments, triplicate bottles were set up for each culture containing 1 mL of inoculum and either neat PCE (0.4 μL), neat TCE (0.3 μL), saturated DCE solution (34 μL) or gaseous VC (200 μL). To further investigate TCE removal, bottles (120 mL) were filled with 20 mL of a highly enriched culture of strain VS made from the Victoria culture. Duplicate bottles were supplied with gaseous VC (50 μL on day 0, then 150 μL on day 3) or TCE (0.4 μL neat liquid). Dechlorination was followed until all VC or TCE was converted to ethene (day 12). The change in strain VS concentration during VC and TCE utilization was then determined both by competitive PCR and by an activity procedure evaluated previously for strain VS. In the activity procedure a non-growth limiting concentration of VC (150 μL) along with excess hydrogen is added to a culture and the initial dechlorination rate is measured (over <1 day). A good estimate of strain VS concentration can then be obtained using the previously determined strain VS maximum VC utilization rate (7.8×10^−10 μmol Cl^− (cell·d)^−1). The increase in strain VS concentration during TCE or VC utilization was determined with these two procedures on the culture before and after TCE and VC utilization.
(§5) Comparative dechlorination and growth kinetics. With mixed cultures, the concentration of organisms carrying out a particular reaction is generally unknown and difficult to determine. […]

[2] = system: VC reductive dehalogenase of Dehalococcoides sp. strain VS; assay: VC-reduction enzyme assay with Ti(III)-reduced methyl viologen as electron donor, gas chromatography; type: biochemical
Description: Enzyme assays. Cells were harvested by centrifugation (20,000 g, 20 min, 4° C.) under strictly anoxic conditions using the anoxic chamber, washed and resuspended in degassed MOPS buffer (20 mM, pH 7.2) supplemented with 2 mM DTE and 0.2 mM titanium(III)NTA (buffer A). The buffer was incubated overnight in the anoxic chamber before addition of reducing agents. Cell-free extracts were obtained by anoxic disruption of cells by French Press treatment (138 MPa; two passages), followed by two centrifugation steps (30,000×g, 15 min, 4° C.).
Assays of VC-reduction were conducted as described previously in 2-ml glass vials under an N2/H2 atmosphere with Ti(III)-reduced methyl viologen as artificial electron donor (Rosner et al.) The protein concentration in the assay varied between 10 and 100 μg/ml. The test was started by addition of gaseous VC to the assay mix (total aqueous volume 0.3 ml), and change in VC and ethene concentrations were followed with time by gas chromatography. Experiments testing for reduction of liquid chlorinated ethenes (PCE, TCE, DCE-isomers) were carried out essentially as described above with the appropriate substitution of the chlorinated ethene. The chlorinated compounds were added from aqueous stock solutions.
Oxygen sensitivity of VC-reducing activity in cell-free extract was investigated in buffer amended with resazurin as redox indicator. Prior to addition of VC, the assay was exposed to air until the resazurin underwent a color-change from colorless to pink. Subsequently, the assay was rendered anoxic again by exchanging the gas phase inside the anoxic chamber followed by addition of Ti(III)NTA (5 mM final concentration). All enzyme assays were carried out at ambient temperature, and given activities are means of at least three independent measurements.
Partial purification of VC reductase. Protein purification was performed at 4° C. in the anoxic chamber. The membrane fraction was obtained by centrifugation of cell-free extract at 100,000×g for 90 min at 4° C. The pellet was resuspended in 1 ml buffer A supplemented with 2 mM 3-[(3-cholamidopropyl)dimethylammonio]-1-propanesulfonic acid (CHAPS), and incubated for 1 h on ice. After subsequent centrifugation (100,000×g, 90 min, 4° C.) the solubilized membrane fraction was diluted with an equal volume of buffer B (50 mM 1,3-Bis[tris(hydroxymethyl)methylamino]propane (Bis-Tris Propane), pH 9.6, 2 mM dithiothreitol, 0.2 mM titanium(III)NTA, 20 mM CHAPS), and loaded on a 1-ml HighTrap Q column (Amersham Pharmacia) equilibrated with buffer C (same as buffer B but with 2 mM CHAPS). VC reductive dehalogenase activity was eluted as a single peak (at 550 to 580 mM NaCl) with 10 ml buffer C followed by a 40-ml linear gradient from 0-700 mM NaCl in buffer C at a flow of 1 ml/min. Fractions containing the highest activity were pooled and mixed with an equal volume of buffer A containing 20 mM CHAPS, and applied to a Superose-6 column equilibrated with the same buffer. Enzyme activity was eluted with buffer A at a flow rate of 0.2 ml/min. The protein concentration of the samples was determined according to Bradford with bovine serum albumin as a standard.

KB-1/VC culture = assay: Batch dechlorination and growth kinetics, KB-1/VC culture; type: cell-based, Dehalococcoides-like microorganisms; conditions: for Maximum Growth Rate: 95% confidence interval
Text: as §1, §2, §3, §4, §5

| SMILES | Maximum Growth Rate [1] | Half velocity coefficient KT ([1]; VS Mixed culture) | reduction rate relative to reduction rate for cDCE to VC ([2]; reduction of TCE to cDCE) | effect on the reduction rate of VC ([2]; saturating concentrations of PCE or TCE present) | Half velocity coefficient KT (KB-1/VC culture) | Maximum Growth Rate (KB-1/VC culture) | time to form 5 μmol of ethene ([1]; Victoria culture, 200 μL VC) | rate of reduction by active protein fractions ([2]; fractions after gel filtration, reduced methyl viologen as electron donor) | time to form 5 μmol of ethene (KB-1/VC culture; 200 μL VC) |
| --- | --- | --- | --- | --- | --- | --- | --- | --- | --- |
| ClC=C(Cl)Cl [TCE, trichloroethene] | 0.35 ± 0.07 day⁻¹ | 9.0 ± 0.4 µM | 5% | not affected | 10.0 ± 2.0 µM | 0.33 ± 0.06 day⁻¹ | – | – | – |
| C=CCl [VC, vinyl chloride] | 0.49 day⁻¹ and 0.49 ± 0.02 day⁻¹ | – | – | – | – | 0.42 day⁻¹ and 0.42 ± 0.03 day⁻¹ | 18 days | 350 nmol min^−1 [mg protein]^−1 | 18 days |
